For five compounds, melting point and IC50 results are on record in patent US8124621B2, “Substituted 1-amino-4-phenyl-dihydroisoquinolines, methods for the production thereof, use thereof as a medicament, and medicaments containing them” (Sanofi-Aventis, priority 2006, dated 2012).

For one series, the target named is T1, NHE3 (Homo sapiens, UniProt P48764).
T1 sequence (P48764 26-834): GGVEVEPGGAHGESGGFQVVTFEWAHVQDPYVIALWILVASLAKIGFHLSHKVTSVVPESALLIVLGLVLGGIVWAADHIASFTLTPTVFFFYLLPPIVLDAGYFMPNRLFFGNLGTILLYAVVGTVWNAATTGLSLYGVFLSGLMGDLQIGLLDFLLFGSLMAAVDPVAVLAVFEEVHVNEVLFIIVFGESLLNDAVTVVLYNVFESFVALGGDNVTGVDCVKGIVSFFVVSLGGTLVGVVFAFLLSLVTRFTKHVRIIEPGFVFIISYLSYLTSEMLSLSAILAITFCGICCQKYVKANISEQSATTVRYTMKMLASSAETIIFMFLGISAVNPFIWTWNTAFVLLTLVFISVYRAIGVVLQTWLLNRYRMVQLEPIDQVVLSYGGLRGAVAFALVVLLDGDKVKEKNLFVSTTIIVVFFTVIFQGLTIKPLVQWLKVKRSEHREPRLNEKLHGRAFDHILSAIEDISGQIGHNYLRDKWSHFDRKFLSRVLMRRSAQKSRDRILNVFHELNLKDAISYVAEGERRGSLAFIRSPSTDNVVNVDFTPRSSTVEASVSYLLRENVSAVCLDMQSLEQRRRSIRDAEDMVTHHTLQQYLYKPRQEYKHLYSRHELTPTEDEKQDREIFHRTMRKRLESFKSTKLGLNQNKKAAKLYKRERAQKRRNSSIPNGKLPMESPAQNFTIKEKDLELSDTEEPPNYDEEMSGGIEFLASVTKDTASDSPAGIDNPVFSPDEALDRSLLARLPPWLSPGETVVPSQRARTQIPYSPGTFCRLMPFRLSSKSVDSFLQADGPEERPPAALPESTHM
Put plainly: Determination of the NHE-inhibitory effect (recovery of intracellular pH after acidification, BCECF fluorescence). It counts as cell-based. Conditions: pH recovery recorded for three minutes with NHE3; BCECF-loaded cells. The protocol:
Description of Assay: Determination of the NHE-Inhibitory Effect
In this assay, the recovery of the intracellular pH (pHj) after an acidification which occurs even under bicarbonate-free conditions with functional NHE was determined. To this end, the pHj was determined using the pH-sensitive fluorescent dye BCECF (Calbiochem, the precursor BCECF-AM was employed). The cells were initially loaded with BCECF. The BCECF fluorescence was determined in a ratio fluorescence spectrometer (Photon Technology International, South Brunswick, N.J., USA) with excitation wavelengths of 505 and 440 nm and an emission wavelength of 535 nm and converted into the pHj using calibration plots. The cells had been incubated in NH4Cl buffer (pH 7.4) for the BCECF loading (NH4Cl buffer: 115 mM NaCl, 20 mM NH4Cl, 5 mM KCl, 1 mM CaCl2, 1 mM MgSO4, 20 mM Hepes, 5 mM glucose, 1 mg/ml BSA; a pH of 7.4 was adjusted with 1 M NaOH). The intracellular acidification was induced by adding 975 μl of an NH4Cl-free buffer (see below) to 25 μl aliquots of the cells incubated in NH4Cl buffer. The subsequent rate of pH recovery was recorded for two minutes with NHE1, five minutes with NHE2 and three minutes with NHE3. To calculate the inhibitory power of the tested substances, the cells were initially investigated in buffers with which there was complete or absolutely no pH recovery. For complete pH recovery (100%), the cells were incubated in Na^+-containing buffer (133.8 mM NaCl, 4.7 mM KCl, 1.25 mM CaCl2, 1.25 mM MgCl2, 0.97 mM Na2HPO4, 0.23 mM NaH2PO4, 5 mM Hepes, 5 mM glucose, a pH of 7.0 was adjusted with 1 M NaOH). To determine the 0% value, the cells were incubated in an Na^+-free buffer (133.8 mM choline chloride, 4.7 mM KCl, 1.25 mM CaCl2, 1.25 mM MgCl2, 0.97 mM K2HPO4, 0.23 mM KH2PO4, 5 mM Hepes, 5 mM glucose, a pH of 7.0 was adjusted with 1 M NaOH). The substances to be tested were made up in the Na^+-containing buffer. The recovery of the intracellular pH at each tested concentration of a substance was expressed as a percentage of the maximum recovery. The IC50 of the respective substance for the individual NHE subtypes was calculated from the percentages of pH recovery using the Sigma Plot program.

The structures appear in SMILES notation. Counter-ions that a name gives are not always drawn.

`NC1=NCC(c2ccc(N)cc2)c2cc(Cl)ccc21` (centres unmarked) (as salt: hydrochloride) [Example 1A, 1-Amino-4-(4-aminophenyl)-6-chloro-3,4-dihydroisoquinoline Hydrochloride]: the melting point fell in the range of 278 to 284 °C.

In the case of `NC1=NCC(c2ccc(N)cc2)c2cc(Cl)ccc21` (centres unmarked) [Example 1A, 1-Amino-4-(4-aminophenyl)-6-chloro-3,4-dihydroisoquinoline Hydrochloride], half-maximal inhibition against NHE3 (IC50) was put at 1.95 µM.

With `NC1=NCC(c2ccc(N)cc2)c2ccccc21` (centres unmarked) [Example 1B, 1-amino-4-(4-aminophenyl)-3,4-dihydroisoquinoline Hydrochloride], the 50% inhibitory concentration (IC50) on NHE3 came to 8.24 µM.

For the compound `NC1=NCC(c2ccccc2N)c2cc(Cl)ccc21` (centres unmarked) [Example 2, 1-Amino-4-(2-aminophenyl)-6-chloro-3,4-dihydroisoquinoline Hydrochloride], on NHE3, it took 1.63 µM to reach half-maximal inhibition (IC50).

At NHE3, `CNC1=NCC(c2ccc(N)cc2)c2cc(Cl)ccc21` (centres unmarked) [Example 3, 4-(4-Aminophenyl)-6-chloro-1-methylamino-3,4-dihydroisoquinoline Hydrochloride] came in with an IC50 of 4.93 µM.

As usually defined, the melting point is the temperature, or range, at which the solid turns liquid. One may read the IC50 as the concentration needed to halve the response being measured. A higher IC50 goes with a need for much substance.
